According to US7595395B2, “Gabaergic agents to treat memory deficits” (priority 2005, dated 2009):
Like-named read-outs stand apart in the source and are kept apart here.

Columns and labels:
[1] = molecular target: T1, α2β3γ2 benzodiazepine receptor GABA(A) isoform (UniProt P18507+P47869); assay: Radioligand competition binding, α2β3γ2 BzR/GABA(A) isoform; parameters: species or system human and rat
T1 sequence (P18507 1-475): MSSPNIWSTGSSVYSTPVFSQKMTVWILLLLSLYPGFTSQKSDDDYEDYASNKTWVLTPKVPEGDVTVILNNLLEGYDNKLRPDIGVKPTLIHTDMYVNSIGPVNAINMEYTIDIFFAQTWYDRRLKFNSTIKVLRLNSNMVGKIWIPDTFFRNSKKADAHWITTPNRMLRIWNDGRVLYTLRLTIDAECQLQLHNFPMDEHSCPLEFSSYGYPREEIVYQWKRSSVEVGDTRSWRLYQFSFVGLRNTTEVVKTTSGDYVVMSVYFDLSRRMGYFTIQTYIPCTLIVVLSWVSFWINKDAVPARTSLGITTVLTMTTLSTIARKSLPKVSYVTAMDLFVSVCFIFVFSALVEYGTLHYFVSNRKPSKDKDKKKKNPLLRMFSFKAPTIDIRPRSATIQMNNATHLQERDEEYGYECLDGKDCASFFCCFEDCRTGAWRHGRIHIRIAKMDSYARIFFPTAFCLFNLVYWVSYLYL
T1 sequence (P47869 1-451): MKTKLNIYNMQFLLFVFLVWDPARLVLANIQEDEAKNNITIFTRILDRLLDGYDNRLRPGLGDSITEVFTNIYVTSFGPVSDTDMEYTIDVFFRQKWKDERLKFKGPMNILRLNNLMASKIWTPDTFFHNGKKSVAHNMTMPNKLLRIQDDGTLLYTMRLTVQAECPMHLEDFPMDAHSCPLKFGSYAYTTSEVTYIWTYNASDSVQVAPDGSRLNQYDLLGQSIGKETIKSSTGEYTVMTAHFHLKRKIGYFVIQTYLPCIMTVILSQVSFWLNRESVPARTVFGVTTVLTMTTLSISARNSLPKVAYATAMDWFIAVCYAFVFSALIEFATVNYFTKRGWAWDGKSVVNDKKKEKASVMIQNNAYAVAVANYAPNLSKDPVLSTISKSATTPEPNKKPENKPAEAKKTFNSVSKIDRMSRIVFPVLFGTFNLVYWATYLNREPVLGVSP
Description: (§1) The affinity of all ligands at the 6 major recombinant GABAA/BzR subtypes was measured by competition for [^3H]Ro15-1788 binding to HEK-T cells expressing both human and rat GABAA/Bz receptors of composition α1β2γ2 (α1), α2β2γ2 (α2), α3β2γ2 (α3), α4β2γ2 (α4), α5β2γ2 (α5) and α6β2γ2 (α6). It is well known that the β2 and β3 subunits can be interchanged with no effect on Bz ligand affinity or efficacy. […] These studies are similar to those performed in the laboratory of Bryan Roth who has already expressed the receptors employing the work of Kucken et. al. and Gray et. al.
(§2) In brief, for membrane preparations, the cells were scraped on to the ice and diluted into 5 mL of phosphate buffered saline (pH=7.40) and cells pelleted by centrifugation for 5 min. at 4° C. The pellet was resuspended in 1 mL of 50 mM Tris-acetate buffer (pH 7.4) and centrifuged at 18,000 g for 20 min. […] Each pellet were diluted to 6 mL and then 100 μL of membranes were incubated with approximately 1 nM final concentration of [^3H]Ro 15-1788 in a total volume of 250 μL together with serial dilutions of test compound for 90 min. on ice. The membranes were harvested in polyethyleneimine-pretreated Whatman GF/C filters and after drying and addition of scintillation cocktail, counted in a scintillation counter. The cpm retained on the filters was plotted against log concentration (M) and fitted to one site competition equation to obtain the Ki using Graphpad Prizm (V4.0) using the Cheng-Prusoff approximation.

[2] = molecular target: α6β3γ2 benzodiazepine receptor GABA(A) isoform (UniProt P18507+Q16445); assay: Radioligand competition binding, α6β3γ2 BzR/GABA(A) isoform; parameters: species or system human and rat
Description: as §1, §2

[3] = molecular target: T2, α1β3γ2 benzodiazepine receptor GABA(A) isoform (UniProt P14867+P18507); assay: Radioligand competition binding, α1β3γ2 BzR/GABA(A) isoform; parameters: Ki α1; means of two determinations; Ki α1; α1; species or system human and rat
T2 sequence (P14867 1-456): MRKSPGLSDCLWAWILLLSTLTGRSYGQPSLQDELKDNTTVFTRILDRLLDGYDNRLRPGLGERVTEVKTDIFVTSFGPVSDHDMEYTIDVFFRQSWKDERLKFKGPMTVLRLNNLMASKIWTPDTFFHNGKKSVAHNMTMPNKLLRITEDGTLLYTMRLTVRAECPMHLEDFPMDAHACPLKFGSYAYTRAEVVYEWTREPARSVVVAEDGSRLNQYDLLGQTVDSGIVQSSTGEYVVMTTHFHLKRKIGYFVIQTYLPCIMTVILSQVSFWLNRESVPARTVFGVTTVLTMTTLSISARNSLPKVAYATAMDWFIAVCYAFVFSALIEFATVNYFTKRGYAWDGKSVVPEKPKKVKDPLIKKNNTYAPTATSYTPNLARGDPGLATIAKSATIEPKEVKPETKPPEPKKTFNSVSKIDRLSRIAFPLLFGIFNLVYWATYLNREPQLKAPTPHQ
T2 sequence (P18507 1-475): T1 sequence (P18507 1-475)
Description: as §1, §2

α5β3γ2 GABAA receptor = α5β3γ2 GABAA receptor (Rattus norvegicus, UniProt P18508+P19969); assay: Two-electrode voltage clamp in Xenopus oocytes, α5β3γ2; conditions: oocytes
Sequence of α5β3γ2 GABAA receptor (P19969 26-464): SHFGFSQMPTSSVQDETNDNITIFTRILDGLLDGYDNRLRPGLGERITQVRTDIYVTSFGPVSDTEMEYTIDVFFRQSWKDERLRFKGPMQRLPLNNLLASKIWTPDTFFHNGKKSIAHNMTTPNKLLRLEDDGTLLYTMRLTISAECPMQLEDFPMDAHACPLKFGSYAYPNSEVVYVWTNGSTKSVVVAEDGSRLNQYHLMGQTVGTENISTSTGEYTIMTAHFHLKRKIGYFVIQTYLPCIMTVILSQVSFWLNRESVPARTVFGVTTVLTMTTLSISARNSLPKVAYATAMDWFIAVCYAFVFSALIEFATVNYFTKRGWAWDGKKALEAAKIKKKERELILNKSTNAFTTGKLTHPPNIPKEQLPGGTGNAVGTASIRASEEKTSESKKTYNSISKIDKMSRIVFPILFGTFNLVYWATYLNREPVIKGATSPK
Sequence of α5β3γ2 GABAA receptor (P63079 26-473 partner): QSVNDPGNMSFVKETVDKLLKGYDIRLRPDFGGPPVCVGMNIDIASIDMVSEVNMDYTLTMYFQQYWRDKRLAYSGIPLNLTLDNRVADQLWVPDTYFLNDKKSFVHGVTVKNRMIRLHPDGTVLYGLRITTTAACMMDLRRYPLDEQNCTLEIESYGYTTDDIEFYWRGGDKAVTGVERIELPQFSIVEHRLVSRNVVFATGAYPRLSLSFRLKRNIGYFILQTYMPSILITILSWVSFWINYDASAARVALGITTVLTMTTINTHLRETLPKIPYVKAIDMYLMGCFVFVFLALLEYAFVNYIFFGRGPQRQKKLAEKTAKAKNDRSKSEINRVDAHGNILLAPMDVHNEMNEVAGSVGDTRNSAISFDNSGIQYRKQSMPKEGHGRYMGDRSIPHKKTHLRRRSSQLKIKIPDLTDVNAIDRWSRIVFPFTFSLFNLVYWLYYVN
Sequence of α5β3γ2 GABAA receptor (P18508 39-466): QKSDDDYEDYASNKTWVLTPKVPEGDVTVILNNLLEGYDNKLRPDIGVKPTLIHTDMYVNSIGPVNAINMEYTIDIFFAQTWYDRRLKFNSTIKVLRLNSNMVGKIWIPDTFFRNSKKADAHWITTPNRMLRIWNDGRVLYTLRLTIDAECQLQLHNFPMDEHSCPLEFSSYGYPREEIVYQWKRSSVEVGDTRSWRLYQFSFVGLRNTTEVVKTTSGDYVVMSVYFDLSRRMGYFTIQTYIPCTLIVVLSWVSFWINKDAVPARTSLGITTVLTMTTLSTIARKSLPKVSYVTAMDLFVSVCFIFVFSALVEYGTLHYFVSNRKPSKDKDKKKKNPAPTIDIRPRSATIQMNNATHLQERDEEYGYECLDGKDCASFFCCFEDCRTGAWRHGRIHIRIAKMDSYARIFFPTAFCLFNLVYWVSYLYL

[4] = molecular target: T3, α5β3γ2 benzodiazepine receptor GABA(A) isoform (UniProt P18507+P31644); assay: Radioligand competition binding, α5β3γ2 BzR/GABA(A) isoform; parameters: Ki α5; means of two determinations; Ki α5; α5; other: text; species or system human and rat
T3 sequence (P18507 1-475): T1 sequence (P18507 1-475)
T3 sequence (P31644 1-462): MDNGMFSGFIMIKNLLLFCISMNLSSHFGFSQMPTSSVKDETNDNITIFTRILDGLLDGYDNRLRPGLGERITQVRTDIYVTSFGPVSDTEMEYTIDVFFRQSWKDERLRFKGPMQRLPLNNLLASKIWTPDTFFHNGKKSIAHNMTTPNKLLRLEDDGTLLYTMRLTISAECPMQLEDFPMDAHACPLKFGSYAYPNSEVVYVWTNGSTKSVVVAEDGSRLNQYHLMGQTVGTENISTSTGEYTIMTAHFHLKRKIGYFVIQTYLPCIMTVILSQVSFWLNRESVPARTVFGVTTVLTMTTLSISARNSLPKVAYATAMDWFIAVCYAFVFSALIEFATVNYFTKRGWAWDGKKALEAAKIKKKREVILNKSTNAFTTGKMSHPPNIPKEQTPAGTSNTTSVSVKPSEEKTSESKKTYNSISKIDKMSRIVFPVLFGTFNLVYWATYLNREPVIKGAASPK

[5] = read-out: Ki α2, Table I, means of two determinations
[6] = read-out: α2, untitled table of lead compounds, unit inferred
[7] = read-out: Ki α6, Table I, means of two determinations
[8] = read-out: α6, untitled table of lead compounds, unit inferred
[9] = read-out: Ki α1, Table I, means of two determinations
[10] = read-out: α1, untitled table of lead compounds, unit inferred
[11] = read-out: Ki α5, Table I, means of two determinations
[12] = read-out: α5, untitled table of lead compounds, unit inferred

SMILES | Ki [1, 5] | Ki [1, 6] | Ki [2, 7] | Ki [2, 8] | Ki [3, 9] | Ki [3, 10] | efficacy / modulation of GABA elicited currents at α5 (in words) (α5β3γ2 GABAA receptor) | Ki [4, 11] | Ki [4, 12] | Ki ([1]; read-out: Ki α2, Table 2, means of two determinations) | Ki ([2]; read-out: Ki α6, Table 2, means of two determinations) | Ki ([3]; read-out: Ki α1, Table 2, means of two determinations) | efficacy / modulation of GABA elicited currents at α5 (in words) (α5β3γ2 GABAA receptor; listed as XLi-356) | efficacy / modulation of GABA elicited currents at α5 (in words) (α5β3γ2 GABAA receptor; listed as Xli356) | Ki ([4]; read-out: Ki α5, Table 2, means of two determinations) | Ki ([4]; read-out: binding potency at α5 subtypes)
COCc1ncn2c1CN(C)C(=O)c1cc(Cl)ccc1-2 [PWZ-029, methyl(8-chloro-5,6-dihydro-5-methyl-6-oxo-4H-imidazo[1,5-α][1,4]benzodiazepin-3-yl)methyl ether] | > 300 nM | > 300 nM | > 300 nM | > 300 nM | > 300 nM | > 300 nM | selective inverse agonist | 38.8 nM | 38.8 nM | – | – | – | – | – | – | –
CCc1ccc2c(c1)C(=O)N(C)Cc1c(C(=O)OCCCOC(=O)c3ncn4c3CN(C)C(=O)c3cc(CC)ccc3-4)ncn1-2 [XLi356, 1,3-Bis(8-ethyl-5,6-dihydro-5-methyl-6-oxo-4H-imidazo[1,5a][1,4]benzodiazepine-3-carboxy)propyl diester] | – | 5980 nM | – | – | – | 2380 nM | – | – | 107 nM | 5980 nM | 5000 nM | 2380 nM | clear agonist | appears to be an agonist | 107 nM | –
CCOC(=O)c1ncn2c1CN=C(c1ccccc1)c1cc(-c3ccccc3)ccc1-2 [DM-I-81, Ethyl 8-phenyl-6-phenyl-4H-benzo[f]imidazo[1,5-a][1,4]diazepine-3-carboxylate] | > 2000 nM | > 2000 nM | > 2000 nM | > 2000 nM | > 2000 nM | > 2000 nM | moderate agonist activity | 176 nM | 176 nM | – | – | – | – | – | – | 174 nM
